Reference: US20230277508A1, “USE OF COMPOUND AS CYP2E1 INHIBITOR” (SHANGHAI LING XI BIOTECHNOLOGY DEVELOPMENT CO., LTD., priority 2020, published 2023)

Assays:
[1] = target: T1, human liver microsome CYP2E1 (Homo sapiens, UniProt P05181); assay: Determination of IC50 for a CYP2E1 inhibitory effect (CZX probe, mixed liver microsome); format: biochemical; settings: mixed liver microsome of healthy individuals 0.3 mg/mL, 62.5 μM CZX, 1 mM NADPH, 30 min; read-out: IC50 for 2E1 inhibition
T1 construct: metabolic activity of a mixed liver microsome CYP2E1 of a healthy individual; from tissue; host or cells: mixed (pooled) human liver microsomes of healthy individuals
T1 sequence (P05181 whole entry): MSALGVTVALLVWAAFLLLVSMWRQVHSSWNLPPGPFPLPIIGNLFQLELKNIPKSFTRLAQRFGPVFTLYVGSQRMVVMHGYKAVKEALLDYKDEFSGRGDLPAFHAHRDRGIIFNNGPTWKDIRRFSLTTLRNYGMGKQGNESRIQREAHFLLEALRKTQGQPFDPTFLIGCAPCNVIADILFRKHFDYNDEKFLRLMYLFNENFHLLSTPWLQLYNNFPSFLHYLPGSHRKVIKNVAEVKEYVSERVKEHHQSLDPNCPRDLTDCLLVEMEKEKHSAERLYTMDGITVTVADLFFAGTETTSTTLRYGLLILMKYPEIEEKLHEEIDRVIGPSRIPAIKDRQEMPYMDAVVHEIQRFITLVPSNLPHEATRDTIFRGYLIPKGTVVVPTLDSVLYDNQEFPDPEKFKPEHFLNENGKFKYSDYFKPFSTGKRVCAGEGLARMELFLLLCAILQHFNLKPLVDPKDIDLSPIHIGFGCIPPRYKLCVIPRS
Experimental: CZX was used as a probe substrate to detect an inhibitory effect of an inhibitor to be tested on the metabolic activity of a mixed liver microsome CYP2E1 of a healthy individual (IC50: half inhibition concentration; Ki: inhibition constant; the smaller the IC50 and the smaller the Ki, the higher the inhibition intensity of the inhibitor), thereby determining an inhibitory effect of the inhibitor to be tested on the human liver microsome CYP2E1.
An incubation system in a total volume of 100 μL was adopted, including a substrate, an inhibitor of different concentrations, a liver microsomal protein, and phosphate-buffered saline (PBS). The incubation system was pre-incubated in a 37° C. water bath for 5 min, reduced coenzyme was added to allow a reaction for 30 min, and then the reaction was terminated in an ice bath. In a specific experiment, a concentration of an inhibitor can be selected as required.
In this example, the incubation system includes 62.5 μM CZX, 100 mM (pH=7.4) PBS, 0.3 mg/mL liver microsomal protein, and 1 mM NADPH.
In this example, the reaction is terminated with 1 mL of ethyl acetate. In other preferred examples, the reaction may also be terminated with 1 mL of methyl tert-butyl ether (MTBE), 1 mL of diethyl ether, or 100 μL of methanol.

[2] = system: CT26 cell lung metastasis; assay: Lung metastasis model, tail vein injection of CRC cell CT26; format: in vivo, Balb/C mouse; settings: SMI0 30 mg/kg, 14 days
A549 lung cancer cells = assay: Direct effect on proliferation of A549 lung cancer cells (CCK8); format: cell-based; settings: up to 100 μmol/L, 24 h
Experimental: Experimental method: Lewis lung cancer cells and A549 lung cancer cells in a logarithmic growth phase each were selected and inoculated into a 96-well plate at a concentration of 1*10^5 cells/mL, then 100 μL of a basic medium including SMI0 at different concentrations (0 μmol/L, 0.16 μmol/L, 0.8 μmol/L, 4 μmol/L, 20 μmol/L, and 100 μmol/L) was added to each well, and 24 h later, 10 μL of a CCK8 reagent was added to each well; and the cells were further cultivated for 2 h, and an absorbance OD value of each well was determined at 450 nm by a microplate reader. 3 replicates were set for each well, and an average was taken. The proliferation activity was calculated based on the OD value.

[3] = system: GL261 cells / M2 microglial cells; assay: GL261 cells co-cultivated with M2 microglial cells; format: cell-based, mouse; settings: SMI0 50 μmol/L vs M2 microglial cell co-cultivation group
Experimental: Experimental method: 10 1-2 d newborn C57BL/6 WT mice and 6 CYP2E1^−/− mice were taken, primary microglial cells and astrocytes were collected and inoculated into 6-well plates, and 24 h later, culture supernatants were taken and co-cultivated with glioma cells. Experimental groups: control group; M2 model group; high-concentration, medium-concentration, and low-concentration SMI0 (50 μmol/L, 12.5 μmol/L, and 3.1 μmol/L) groups; and CYP2E1 gene-knockout group. 24 h later, supernatants were discarded; and […] and IL-13 each were added at 20 ng/mL to induce the transformation of microglial cells into the M2 type in the M2 model group and the high-concentration, medium-concentration, and low-concentration SMI0 groups, and different concentrations of SMI0 (50 μmol/L, 12.5 μmol/L, and 3.1 μmol/L) were also added in the intervention groups. The proliferation of glioma cells was determined by a CCK8 method, and an apoptosis proportion was determined by an Annexin V-FITC-PI apoptosis staining kit.

[4] = system: ovarian cancer ID8 cell line abdominal transplanted tumor; assay: Mouse ovarian cancer abdominal transplanted tumor model (ID8); format: in vivo, C57/6 mouse; settings: SMI0 30 mg/kg ig daily, 30-day modeling
Experimental: Experimental method: A female C57/6 mouse ovarian cancer abdominal transplanted tumor model was constructed with an ovarian cancer murine ID8 cell line at a cell concentration of 2.5×10^6. A model group and an SMI0 intervention group were set for the experiment. The intervention group was intragastrically administered with the SMI0 compound at 30 mg/kg every day from three days before modeling to the end of the 30-day modeling (model group, n=10 mice; and SMI0 compound (30 mg/kg) group, n=11 mice). At the end of the experiment, blood was collected from the orbit, a body weight was measured, then the mice each were sacrificed, and ovary tissues were collected. Ovary tissue specimens were subjected to HE staining, and then the ovary tissue lesion and tumorigenesis of mice in each group were observed.

[5] = system: LPS-induced sepsis in rats; assay: LPS-induced rat sepsis model; format: in vivo, SD rat; settings: SMI0 150 mg/kg ig or celecoxib 5 mg/kg ig 30 min before LPS 5 mg/kg ip; 4 h, 5 h, 6 h; vs model group
Experimental: Rats: An SD rat sepsis model was constructed through single intraperitoneal injection of LPS (5 mg/kg). 30 min before LPS administration, rats in the model group were administered with NS (0.5 mL/kg, i.g.), rats in the positive control group were administered with celecoxib (5 mg/kg, i.g.), and rats in the CYP2E1 inhibition group were administered with the compound SMI0 (150 mg/kg, i.g.). After LPS administration, a body temperature of each rat was measured and recorded every hour until 9 h (control group, n=8 rats; model group, n=10 rats; celecoxib group, n=10 rats; and SMI0 compound group, n=10 rats).

For `CC(=O)c1scnc1C` [SMI0], the IC50 [1] was 1.64 µM, the lung weight ([2]; vs model group) was “significantly reduced” and the number of nodules ([2]; vs model group) was “significantly reduced”. For the same compound, the “tumor proliferation inhibition rate” value ([2]; as high as) was 66.7%, the “effect on the proliferation of A549 lung cancer cells” value (A549 lung cancer cells) was “no significant inhibitory effect” and the “apoptosis of GL261 cells” value [3] was “promoted”. The “proliferation of GL261 cells” value ([3]; P<0.001) was “significantly inhibited”, the “inhibition rate for the ascites weight” value [4] was 83.78% and the ascites volume ([4]; vs model group) was “significantly reduced”. For the same compound, the “body weight of mice” value ([4]; vs model group) was “significantly reduced”, the “inhibition rate for tumor proliferation of the greater momentum” value ([4]; as high as) was 58.70% and the “increase in body temperature in the LPS-induced sepsis rat model” value [5] was “avoided”.
